In PubChem BioAssay AID248 (DTP/NCI, 2004):
Inconclusive results and toxic doses are left out. Cut-off read from the data, not from the text of the source: active = T/C of 150% or more; inactive = T/C below 125%.

Tested on: L1210 leukemia ip in BDF1 mice, survival T/C
Experiment: NCI In Vivo Anticancer Drug Screen. Data for tumor model L1210 Leukemia (intraperitoneal) in B6D2F1 (BDF1) mice
Details: endpoint: mean survival time, higher = longer survival
Method in brief: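 Mice bearing the transplanted tumor received compound or vehicle. Survival of the treated group was divided by that of the vehicle-treated control group to give the ratio.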

[1] = dose: 100.0 mg/kg/injection, schedule: Q01DX009 (ip), vehicle: Klucel (hydroxypropylcellulose) (HPC)
[2] = dose: 100.0 mg/kg/injection, schedule: Q04DX003 (ip), vehicle: saline with Tween-80
[3] = dose: 200.0 mg/kg/injection, schedule: Q01DX009 (ip), vehicle: Klucel (hydroxypropylcellulose) (HPC)
[4] = dose: 200.0 mg/kg/injection, schedule: Q04DX003 (ip), vehicle: saline with Tween-80
[5] = dose: 400.0 mg/kg/injection, schedule: Q04DX003 (ip), vehicle: saline with Tween-80
[6] = dose: 100.0 mg/kg/injection, schedule: Q04DX003 (ip), vehicle: Klucel (hydroxypropylcellulose) (HPC)
[7] = dose: 200.0 mg/kg/injection, schedule: Q04DX003 (ip), vehicle: Klucel (hydroxypropylcellulose) (HPC)
[8] = dose: 400.0 mg/kg/injection, schedule: Q04DX003 (ip), vehicle: Klucel (hydroxypropylcellulose) (HPC)
[9] = dose: 100.0 mg/kg/injection, schedule: Q01DX001 (ip), vehicle: saline with Tween-80
[10] = dose: 200.0 mg/kg/injection, schedule: Q01DX001 (ip), vehicle: saline with Tween-80
[11] = dose: 400.0 mg/kg/injection, schedule: Q01DX001 (ip), vehicle: saline with Tween-80
[12] = dose: 100.0 mg/kg/injection, schedule: Q01DX001 (ip), vehicle: saline
[13] = dose: 200.0 mg/kg/injection, schedule: Q01DX001 (ip), vehicle: saline
[14] = dose: 100.0 mg/kg/injection, schedule: Q01DX009 (ip), vehicle: saline with Tween-80
[15] = dose: 100.0 mg/kg/injection, schedule: Q01DX001 (ip), vehicle: Klucel (hydroxypropylcellulose) (HPC)
[16] = dose: 200.0 mg/kg/injection, schedule: Q01DX001 (ip), vehicle: Klucel (hydroxypropylcellulose) (HPC)
[17] = dose: 400.0 mg/kg/injection, schedule: Q01DX001 (ip), vehicle: Klucel (hydroxypropylcellulose) (HPC)

Measured: T/C

Cc1ccc(OCCBr)cc1
inactive: [1] 93 % of control | [2] 100 % of control | [3] 101 % of control | [4] 107 % of control | [5] 98 % of control

Nc1nc(N)c2cc(S(=O)(=O)c3ccc4ccccc4c3)ccc2n1
inactive: [1] 91 % of control | [6] 98 % of control | [3] 94 % of control | [7] 96 % of control | [8] 98 % of control

CC1C/C(=N/NC(=O)OC(C)(C)C)CC(C)(C)C1 (stereo not drawn)
inactive: dose: 100.0 mg/kg/injection, schedule: Q01DX009 (ip), vehicle: gum acacia 96 % of control | dose: 200.0 mg/kg/injection, schedule: Q01DX009 (ip), vehicle: gum acacia 89 % of control | dose: 400.0 mg/kg/injection, schedule: Q01DX009 (ip), vehicle: gum acacia 87 % of control

CSc1nc(N)cc(NCc2ccccc2)n1
inactive: [9] 93 % of control | [10] 95 % of control | [11] 100 % of control

O=C(OC(=O)c1ccc([N+](=O)[O-])cc1)c1ccc([N+](=O)[O-])cc1
inactive: dose: 100.0 mg/kg/injection, schedule: Q01DX009 (sc), vehicle: olive oil, sesame oil, peanut oil 104 % of control | dose: 100.0 mg/kg/injection, schedule: Q04DX003 (sc), vehicle: olive oil, sesame oil, peanut oil 98 % of control | dose: 200.0 mg/kg/injection, schedule: Q01DX009 (sc), vehicle: olive oil, sesame oil, peanut oil 106 % of control | dose: 200.0 mg/kg/injection, schedule: Q04DX003 (sc), vehicle: olive oil, sesame oil, peanut oil 98 % of control | dose: 400.0 mg/kg/injection, schedule: Q01DX009 (sc), vehicle: olive oil, sesame oil, peanut oil 118 % of control | dose: 400.0 mg/kg/injection, schedule: Q04DX003 (sc), vehicle: olive oil, sesame oil, peanut oil 101 % of control

NC(CSP(=O)(O)O)=NCC12CC3CC(CC(C3)C1)C2
inactive: dose: 10.0 mg/kg/injection, schedule: Q04DX002 (ip), vehicle: Klucel (hydroxypropylcellulose) (HPC) 102 % of control | dose: 20.0 mg/kg/injection, schedule: Q04DX002 (ip), vehicle: Klucel (hydroxypropylcellulose) (HPC) 109 % of control

NC(=S)N/N=C/c1cc2c(cc1[N+](=O)[O-])OCO2
inactive: dose: 50.0 mg/kg/injection, schedule: Q01DX001 (ip), vehicle: carboxymethylcellulose (CMC) 98 % of control | dose: 100.0 mg/kg/injection, schedule: Q01DX001 (ip), vehicle: carboxymethylcellulose (CMC) 101 % of control | dose: 200.0 mg/kg/injection, schedule: Q01DX001 (ip), vehicle: carboxymethylcellulose (CMC) 93 % of control

O=C1C(=O)C(c2ccccc2)Oc2ccccc21 (stereo not drawn)
inactive: dose: 50.0 mg/kg/injection, schedule: Q01DX001 (ip), vehicle: saline 89 % of control | [12] 101 % of control | [13] 98 % of control | dose: 400.0 mg/kg/injection, schedule: Q01DX001 (ip), vehicle: saline 95 % of control

CCO/C=C(/C(=O)OCC)C(=O)C(OCC)OCC
inactive: dose: 100.0 mg/kg/injection, schedule: Q01DX009 (ip), vehicle: saline 101 % of control | dose: 100.0 mg/kg/injection, schedule: Q04DX003 (ip), vehicle: saline 95 % of control | dose: 200.0 mg/kg/injection, schedule: Q01DX009 (ip), vehicle: saline 101 % of control | dose: 200.0 mg/kg/injection, schedule: Q04DX003 (ip), vehicle: saline 97 % of control | dose: 400.0 mg/kg/injection, schedule: Q01DX009 (ip), vehicle: saline 98 % of control | dose: 400.0 mg/kg/injection, schedule: Q04DX003 (ip), vehicle: saline 94 % of control

Cc1ncc(CCl)c2c1OC(C)(C)OC2
inactive: dose: 75.0 mg/kg/injection, schedule: Q01DX001 (ip), vehicle: saline 100 % of control | [12] 100 % of control | dose: 150.0 mg/kg/injection, schedule: Q01DX001 (ip), vehicle: saline 101 % of control | [13] 94 % of control

C/C(=N\O)C(C)(C)O
inactive: dose: 100.0 mg/kg/injection, schedule: Q04DX002 (ip), vehicle: saline 101 % of control | dose: 200.0 mg/kg/injection, schedule: Q04DX002 (ip), vehicle: saline 108 % of control | dose: 400.0 mg/kg/injection, schedule: Q04DX002 (ip), vehicle: saline 105 % of control

CC1(C)OC2OC(COC(=O)c3ccccc3)C(OC(=O)Nc3ccccc3)C2O1 (stereo not drawn)
inactive: [2] 93 % of control | [4] 98 % of control | [5] 97 % of control

O=C1OC2(CCNCC2)C(=O)N1c1ccc(F)cc1
inactive: dose: 12.5 mg/kg/injection, schedule: Q01DX001 (ip), vehicle: carboxymethylcellulose (CMC) 104 % of control | dose: 25.0 mg/kg/injection, schedule: Q01DX001 (ip), vehicle: carboxymethylcellulose (CMC) 101 % of control

O=C(c1ccccc1)C1CC1(C(=O)c1ccccc1)c1ccccc1 (stereo not drawn)
inactive: [9] 103 % of control | [10] 103 % of control | [11] 88 % of control

CCOC(=O)C1CCC(=O)N1 (stereo not drawn)
inactive: [6] 96 % of control | [7] 98 % of control | [8] 98 % of control

CCCCCC#CC(=O)O
inactive: [1] 105 % of control | [6] 98 % of control | [3] 106 % of control | [7] 98 % of control | dose: 400.0 mg/kg/injection, schedule: Q01DX009 (ip), vehicle: Klucel (hydroxypropylcellulose) (HPC) 90 % of control | [8] 109 % of control

c1ccc2sc(SN3CCOCC3)nc2c1
inactive: [14] 95 % of control | [2] 100 % of control | dose: 200.0 mg/kg/injection, schedule: Q01DX009 (ip), vehicle: saline with Tween-80 92 % of control | [4] 87 % of control | dose: 400.0 mg/kg/injection, schedule: Q01DX009 (ip), vehicle: saline with Tween-80 92 % of control | [5] 89 % of control

Cc1ccc(S(=O)(=O)Nc2ccc([N+](=O)[O-])cc2)cc1
inactive: [15] 97 % of control | [16] 97 % of control | [17] 113 % of control

Cc1ccc(N=C(N)NC#N)cc1
inactive: [2] 89 % of control | [4] 86 % of control | [5] 88 % of control

CC(=O)OC1CCC2(C)C(CCC3C2CCC2(C)C3CC3OC(CCC(C)O)C(C)C32)C1 (stereo not drawn)
inactive: dose: 25.0 mg/kg/injection, schedule: Q04DX002 (ip), vehicle: saline with Tween-80 102 % of control | dose: 50.0 mg/kg/injection, schedule: Q04DX002 (ip), vehicle: saline with Tween-80 98 % of control | dose: 100.0 mg/kg/injection, schedule: Q04DX002 (ip), vehicle: saline with Tween-80 94 % of control

CC1=CC(C)(C(Cl)(Cl)Cl)C(C)=C/C1=N/O (stereo not drawn)
inactive: [1] 99 % of control | [3] 89 % of control

CCC(=S)Nc1ccc(Cl)cc1
inactive: dose: 25.0 mg/kg/injection, schedule: Q01DX009 (ip), vehicle: saline with Tween-80 103 % of control | dose: 50.0 mg/kg/injection, schedule: Q01DX009 (ip), vehicle: saline with Tween-80 105 % of control | [14] 112 % of control | [2] 91 % of control | [4] 110 % of control

COCn1c2ccccc2c2nc(-c3ccncc3)nc(-c3ccncc3)c21
inactive: dose: 100.0 mg/kg/injection, schedule: Q04DX002 (ip), vehicle: Klucel (hydroxypropylcellulose) (HPC) 98 % of control | dose: 200.0 mg/kg/injection, schedule: Q04DX002 (ip), vehicle: Klucel (hydroxypropylcellulose) (HPC) 98 % of control | dose: 400.0 mg/kg/injection, schedule: Q04DX002 (ip), vehicle: Klucel (hydroxypropylcellulose) (HPC) 95 % of control

Cc1cc(C)n(/N=C/c2ccc(/C=N/n3c(C)cc(C)c(C#N)c3=O)cc2)c(=O)c1C#N
inactive: [15] 91 % of control | [6] 92 % of control | [16] 87 % of control | [7] 87 % of control | [17] 94 % of control | [8] 90 % of control

CC1CCC(C(C)C)/C(=N/S)C1 (stereo not drawn)
inactive: dose: 75.0 mg/kg/injection, schedule: Q04DX003 (ip), vehicle: saline 93 % of control | dose: 150.0 mg/kg/injection, schedule: Q04DX003 (ip), vehicle: saline 96 % of control | dose: 300.0 mg/kg/injection, schedule: Q04DX003 (ip), vehicle: saline 104 % of control

Cc1cc(C)c(O)c(N=Nc2ccccc2)c1
inactive: dose: 100.0 mg/kg/injection, schedule: Q04DX003 (ip), vehicle: saline sonified 95 % of control | dose: 200.0 mg/kg/injection, schedule: Q04DX003 (ip), vehicle: saline sonified 93 % of control | dose: 400.0 mg/kg/injection, schedule: Q04DX003 (ip), vehicle: saline sonified 91 % of control
